Data published in patent publication US5294611A, “Angiotensin II receptor blocking 2,3,6 substituted quinazolinones” (American Cyanamid Company, priority 1993, dated 1994).

Molecular target: T1, Angiotensin II Receptor (Bos taurus, UniProt P25104)
T1 construct: The brownish tissue forming the adrenal cortex is scraped off and finely minced with scissors before homogenization; tissue local slaughter house (maxwell-Cohen); host or cells: beef adrenal cortex, 100,000 x g microsomal membranes
T1 sequence (P25104 1-359): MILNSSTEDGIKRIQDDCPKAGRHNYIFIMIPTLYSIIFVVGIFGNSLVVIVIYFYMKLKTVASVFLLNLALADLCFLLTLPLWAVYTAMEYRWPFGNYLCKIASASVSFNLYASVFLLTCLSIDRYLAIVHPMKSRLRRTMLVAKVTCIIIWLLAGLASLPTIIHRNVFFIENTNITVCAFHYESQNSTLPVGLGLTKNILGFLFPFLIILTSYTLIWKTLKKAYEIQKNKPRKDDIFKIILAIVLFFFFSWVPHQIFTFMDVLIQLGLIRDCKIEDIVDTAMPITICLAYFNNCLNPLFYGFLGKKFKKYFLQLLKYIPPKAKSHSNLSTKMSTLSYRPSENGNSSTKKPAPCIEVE
Test: Receptor Binding Assay: displacement of [^125 I](Sar^1,Ile^8)AngII from adrenal cortex microsomal membranes
Parameters: species or system beef (bovine adrenals)
Source text: Beef adrenals are obtained from a local slaughter house (maxwell-Cohen). [^125 I](Sar^1,Ile^8)AngII, S.A. 2200 Ci/mmole, is purchased from Dupont (NEN®, Boston, Mass.). All unlabeled AngII analogs, Dimethylsulfoxide (DMSO), nucleotides, bovine serum albumin (BSA) are purchased from Sigma Chemical Co., St. Louis, Mo. U.S.A.
Approximately sixteen (16) to twenty (20) beef adrenal glands are processed as follows: fresh adrenal glands received on crushed ice are cleaned of fatty tissues and the tough membranes encapsulating the glands are removed and discarded. The brownish tissue forming the adrenal cortex is scraped off and finely minced with scissors before homogenization. Care is taken to avoid contamination with medullary tissue during dissection. The scraped cortices are suspended in twenty volumes of an ice-cold buffer medium consisting of 10 mM Tris.HCl (pH 7.4 at 22° C.) and containing 1.0 mM EDTA and 0.2M sucrose. Unless otherwise indicated, all subsequent operations are done at 4° C. […] The homogenate is centrifuged first at low speed (3,000× g) for 10 min. The resulting pellet is discarded and the supernatant fluid recentrifuged at 10,000× g for 15 minutes to give a P2 pellet. This P2 pellet is discarded and the liquid phase is carefully decanted off in clean centrifuge tubes and recentrifuged at high speed (100,000× g) for 60 min. The translucent final pellet is harvested and combined in a small volume (20-50.0 ml) of 50.0 mM Tris.HCl buffer, pH 7.2. A 100 ul aliquot is withdrawn and the protein content of the preparation is determined by the Lowry's method (Lowry, O. H., Rosebrough, N. F., Parr, A. L. and Randall, R. J., Protein measurement with Folin phenol reagent. J. Biol. Chem., 48, 265-275; 1951). The pelleted membrane is reconstituted in 50.0 mM Tris.HCl buffer containing 0.1 mM of phenylmethylsulfonyl fluoride (PMSF) to give approximately a protein concentration of 2.5 mg per ml of tissue suspension. The membrane preparation is finally aliquoted in 1.0 ml volumes and stored at -70° C. until use in the binding assays.
The binding of [^125 I](Sar^1,Ile^8)AngII to microsomal membranes is initiated by the addition of reconstituted membranes (1:10 vols.) in freshly made 50.0 mM Tris.HCl buffer, pH 7.4 containing 0.25% heat inactivated bovine serum albumin (BSA): 80 ul membrane protein (10 to 20 ug/assay) to wells already containing 100 ul of incubation buffer (as described above) and 20 ul [^125 I](Sar^1,ILE^8)AngII (Specific Activity, 2200 Ci/mmole). Non-specific binding is measured in the presence of 1.0 uM unlabeled (Sar^1,ILE^8)AngII, added in 20 ul volume. […] In competition studies, experimental compounds are diluted in dimethylsulfoxide (DMSO) and added in 20 ul to wells before the introduction of tissue membranes. […] Assays are performed in triplicate. The wells are left undisturbed for 60 min. at room temperature. Following incubation, all wells are harvested at once with a Brandel® Harvester especially designed for a 96 well plate (Brandel® Biomedical Research & Development Labs. Inc., Gaithersburg, Md., U.S.A.). The filter discs are washed with 10×1.0 ml of cold 0.9% NaCl to remove unbound ligand. […] This method is routinely used. The filters are removed from the filter grid and counted in a Parkard® Cobra Gamma Counter for 1 min. (Packard Instrument Co., Downers Grove, Ill., U.S.A.). The binding data are analyzed by the non-linear interactive "LUNDON-1" program (LUNDON SOFTWARE Inc., Cleveland, Ohio U.S.A.).

Row | Structure (SMILES) | IC50
1 | CCCCc1nc2ccc([C@H]3[C@@H]4C(=O)OC[C@@H]4ON3C)cc2c(=O)n1Cc1ccc(-c2ccccc2-c2nnn[nH]2)cc1 (relative stereo) [Example 53] | 71 nM
2 | CCCCc1nc2ccc([C@H]3[C@@H]4C(=O)OC[C@@H]4ON3Cc3ccccc3)cc2c(=O)n1Cc1ccc(-c2ccccc2-c2nnn[nH]2)cc1 (relative stereo) [Example 57] | 180 nM
3 | CCCCc1nc2ccc([C@@H]3[C@H]4C(=O)CCC[C@H]4ON3C)cc2c(=O)n1Cc1ccc(-c2ccccc2-c2nnn[nH]2)cc1 (relative stereo) [Example 49] | 880 nM
4 | CCCCc1nc2ccc([C@H]3[C@@H]4C(=O)CC[C@@H]4ON3C)cc2c(=O)n1Cc1ccc(-c2ccccc2-c2nnn[nH]2)cc1 (relative stereo) [Example 48] | 57 nM
5 | CCCCc1nc2ccc([C@H]3[C@@H]4C(=O)CC[C@@H]4ON3Cc3ccccc3)cc2c(=O)n1Cc1ccc(-c2ccccc2-c2nnn[nH]2)cc1 (relative stereo) [Example 55] | 78 nM
6 | CCCCc1nc2ccc([C@H]3[C@@H]4C5CCC(C5)[C@@H]4ON3C)cc2c(=O)n1Cc1ccc(-c2ccccc2-c2nnn[nH]2)cc1 (stereo partly drawn) [Example 51] | 150 nM
